Assay results as given in patent US20260102501A1, “ANTI-CANCER NUCLEAR HORMONE RECEPTOR-TARGETING COMPOUNDS” (Nuvation Bio Inc., priority 2022, published 2026).
Structures can show the parent of a compound that is named as a salt. Where two headings read alike, the source gives them in different places. Numbered stars: 1 amine (or outer) side, 2 acyl side, 3 side chain; on linkers, the order of the positions; unused ones are H or OH. Square brackets hold non-standard residues; d marks the D form. Peptide text beside a SMILES is read from it. * marks the point of attachment. X1 = CC(=O)O[C@]1(C(C)=O)CC[C@H]2[C@@H]3CCC4=CC(=O)CCC4=C3[C@@H](c3ccc(*)cc3)C[C@@]21C; Exatecan = CC[C@@]1(O)C(=O)OCc2c1cc1n(c2=O)Cc2c-1nc1cc(F)c(C)c3c1c2[C@@H](N*)CC3; NHCH2OCH2CO = O=C(COCN[*:1])[*:2]; Sar = CNCC(=O)O

Assays:
[1] = biological target: T1, Progesterone PR-B receptors from human breast carcinoma T47D cells (Homo sapiens, UniProt P06401); experiment: PR binding assay ([3H] Progesterone displacement)
T1 sequence (P06401 1-933): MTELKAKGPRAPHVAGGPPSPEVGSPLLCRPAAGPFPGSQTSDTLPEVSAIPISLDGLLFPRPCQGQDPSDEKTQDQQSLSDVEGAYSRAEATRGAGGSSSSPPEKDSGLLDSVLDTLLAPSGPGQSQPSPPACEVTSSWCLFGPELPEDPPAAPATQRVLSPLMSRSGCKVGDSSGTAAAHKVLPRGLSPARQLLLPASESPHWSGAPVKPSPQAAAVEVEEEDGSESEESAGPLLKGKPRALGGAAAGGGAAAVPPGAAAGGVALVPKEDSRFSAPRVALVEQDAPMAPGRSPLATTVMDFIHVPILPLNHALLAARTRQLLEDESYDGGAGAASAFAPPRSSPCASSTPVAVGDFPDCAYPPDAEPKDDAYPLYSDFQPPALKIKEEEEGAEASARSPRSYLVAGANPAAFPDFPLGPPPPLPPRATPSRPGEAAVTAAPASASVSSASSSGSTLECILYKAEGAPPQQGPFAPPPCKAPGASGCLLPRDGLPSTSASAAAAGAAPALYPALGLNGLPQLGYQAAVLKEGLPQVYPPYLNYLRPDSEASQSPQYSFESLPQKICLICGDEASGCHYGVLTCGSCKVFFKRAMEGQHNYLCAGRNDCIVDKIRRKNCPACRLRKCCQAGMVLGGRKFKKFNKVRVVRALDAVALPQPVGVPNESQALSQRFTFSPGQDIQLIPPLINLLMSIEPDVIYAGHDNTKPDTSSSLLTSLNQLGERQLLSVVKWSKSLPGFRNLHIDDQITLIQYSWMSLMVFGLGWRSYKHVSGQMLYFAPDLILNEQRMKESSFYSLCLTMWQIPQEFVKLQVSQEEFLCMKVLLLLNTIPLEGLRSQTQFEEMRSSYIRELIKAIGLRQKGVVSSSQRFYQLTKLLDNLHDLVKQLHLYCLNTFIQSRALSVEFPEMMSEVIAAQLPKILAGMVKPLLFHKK

[2] = biological target: T2, ligand binding domain of the glucocorticoid receptor (HEK293 cells stably expressing) (Homo sapiens, UniProt P04150); experiment: GR antagonism assay (luciferase reporter)
T2 sequence (P04150 524-758 limits assumed): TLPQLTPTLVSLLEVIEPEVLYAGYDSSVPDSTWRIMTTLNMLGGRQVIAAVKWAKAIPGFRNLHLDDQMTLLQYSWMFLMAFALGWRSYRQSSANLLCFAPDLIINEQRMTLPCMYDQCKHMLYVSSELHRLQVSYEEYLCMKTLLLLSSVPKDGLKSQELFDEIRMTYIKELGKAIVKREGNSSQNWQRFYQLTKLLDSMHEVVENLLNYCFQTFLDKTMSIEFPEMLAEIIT
Experimental: HEK293 cells stably expressing the ligand binding domain of the glucocorticoid receptor were seeded at a density of 40000 cells/well in the assay plate. The assay plate was then incubated at 37° C., 5% CO2 for 30 minutes. Dexamethasone was added to the assay plate at 1.5 nM final concentration and the assay plate incubated at 37° C., 5% CO2 for 20 h. After the incubation period, Dual-glo luciferase reagent was added to the assay plate and mixed at room temperature for 20 minutes on an orbital shaker, before reading out on the En Vision plate reader. 50 μL of Stop & Glo reagent was added to assay plate, mixed at room temperature for 20 minutes, and read on the Envision plate reader.

LNCap cells = experiment: Cell viability assay (CellTiterGlo); type: cell-based; settings: Homo sapiens, 144 h
IEC6 cells = experiment: Cell viability assay (CellTiterGlo); settings: Rattus norvegicus, IEC-6, 144 h, read-out: IEC-6 (IC50, nM)
[3] = biological target: T3, GR (cytosol from IM-9 cells) (Homo sapiens, UniProt P04150); experiment: GR binding assay (3H-Dexamethasone displacement)
T3 sequence (P04150 1-777): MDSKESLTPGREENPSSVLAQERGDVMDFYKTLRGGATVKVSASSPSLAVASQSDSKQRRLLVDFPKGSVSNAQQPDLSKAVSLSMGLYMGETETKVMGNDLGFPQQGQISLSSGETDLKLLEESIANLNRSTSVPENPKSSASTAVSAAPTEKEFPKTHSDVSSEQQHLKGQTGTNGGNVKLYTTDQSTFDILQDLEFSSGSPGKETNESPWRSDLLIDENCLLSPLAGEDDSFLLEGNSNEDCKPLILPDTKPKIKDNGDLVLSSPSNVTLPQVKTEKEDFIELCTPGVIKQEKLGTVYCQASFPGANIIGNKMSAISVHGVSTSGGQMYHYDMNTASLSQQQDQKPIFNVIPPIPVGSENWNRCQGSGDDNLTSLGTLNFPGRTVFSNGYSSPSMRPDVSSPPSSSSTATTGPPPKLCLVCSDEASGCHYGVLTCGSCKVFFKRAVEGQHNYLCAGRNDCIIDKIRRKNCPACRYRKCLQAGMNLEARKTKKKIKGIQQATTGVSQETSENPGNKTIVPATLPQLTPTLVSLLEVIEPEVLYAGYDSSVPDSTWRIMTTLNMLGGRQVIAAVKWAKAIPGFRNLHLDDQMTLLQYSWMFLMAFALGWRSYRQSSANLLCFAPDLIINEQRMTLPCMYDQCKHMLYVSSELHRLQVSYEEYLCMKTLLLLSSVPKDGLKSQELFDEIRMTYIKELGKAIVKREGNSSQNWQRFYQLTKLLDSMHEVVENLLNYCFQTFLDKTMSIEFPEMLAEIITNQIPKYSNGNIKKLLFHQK

[4] = 6 days incubation, CellTiterGlo, read-out: LNCap (IC50)

Row | SMILES | IC50 [1] | IC50 [2] | IC50 (LNCap cells; [4]) | IC50 (IEC6 cells) | IC50 [3] | IC50 (LNCap cells; read-out: LNCap (IC50, nM))
1 | CC[C@@]1(O)C(=O)OCc2c1cc1n(c2=O)Cc2c-1nc1cc(F)c(C)c3c1c2[C@@H](NCC1CCN(CC2CCN(C(=O)CN(C)c4ccc([C@H]5C[C@@]6(C)[C@@H](CC[C@]6(OC(C)=O)C(C)=O)[C@@H]6CCC7=CC(=O)CCC7=C65)cc4)CC2)CC1)CC3 [Compound No. 51, (8S,11R,13S,14S,17R)-17-acetyl-11-(4-((2-(4-((4-((((1S,9S)-9-ethyl-5-fluoro-9-hydroxy-4-methyl-10,13-dioxo-2,3,9,10,13,15-hexahydro-1H,12H-benzo[de]pyrano[3′,4′:6,7]indolizino[1,2-b]quinolin-1-yl)amino)methyl)piperidin-1-yl)methyl)piperidin-1-yl)-2-oxoethyl)(methyl)amino)phenyl)-13-methyl-3-oxo-2,3,6,7,8,11,12,13,14,15,16,17-dodecahydro-1H-cyclopenta[a]phenanthren-17-yl acetate] | < 0.01 µM | 0.01 to 0.1 µM | 10 to 100 nM | 101 to 1000 nM | 0.01 to 0.1 µM | –
2 | CC[C@@]1(O)C(=O)OCc2c1cc1n(c2=O)Cc2c-1nc1cc(F)c(C)c3c1c2[C@@H](NC(=O)COCCCCCCN(C)c1ccc([C@H]2C[C@@]4(C)[C@@H](CC[C@]4(OC(C)=O)C(C)=O)[C@@H]4CCC5=CC(=O)CCC5=C42)cc1)CC3 [Compound No. 47, (8S,11R,13S,14S,17R)-17-acetyl-11-(4-((6-(2-(((1S,9S)-9-ethyl-5-fluoro-9-hydroxy-4-methyl-10,13-dioxo-2,3,9,10,13,15-hexahydro-1H,12H-benzo[de]pyrano [3′,4′:6,7]indolizino[1,2-b]quinolin-1-yl)amino)-2-oxoethoxy)hexyl)(methyl)amino)phenyl)-13-methyl-3-oxo-2,3,6,7,8,11,12,13,14,15,16,17-dodecahydro-1H-cyclopenta[a]phenanthren-17-yl acetate] | < 0.01 µM | 0.101 to 1 µM | 10 to 100 nM | 101 to 1000 nM | < 0.01 µM | –
3 | CC[C@@]1(O)C(=O)OCc2c1cc1n(c2=O)Cc2cc3c(CN4CCN(CCCCCCN(C)c5ccc([C@H]6C[C@@]7(C)[C@@H](CC[C@]7(OC(C)=O)C(C)=O)[C@@H]7CCC8=CC(=O)CCC8=C76)cc5)CC4)c(O)ccc3nc2-1 [Compound 36, (8S,11R,13S,14S,17R)-17-acetyl-11-(4-((6-(4-(((S)-4-ethyl-4,9-dihydroxy-3,14-dioxo-3,4,12,14-tetrahydro-1H-pyrano[3′,4′:6,7]indolizino[1,2-b]quinolin-10-yl)methyl)piperazin-1-yl)hexyl)(methyl)amino)phenyl)-13-methyl-3-oxo-2,3,6,7,8,11,12,13,14,15,16,17-dodecahydro-1H-cyclopenta[a]phenanthren-17-yl acetate] | < 0.01 µM | < 0.01 µM | 10 to 100 nM | 101 to 1000 nM | 0.101 to 1 µM | –
4 | CC[C@@]1(O)C(=O)OCc2c1cc1n(c2=O)Cc2cc3c(CN(C)C)c(OCC4CCN(C(=O)CN(C)c5ccc([C@H]6C[C@@]7(C)[C@@H](CC[C@]7(OC(C)=O)C(C)=O)[C@@H]7CCC8=CC(=O)CCC8=C76)cc5)CC4)ccc3nc2-1 [Compound No. 19, (8S,11R,13S,14S,17R)-17-Acetyl-11-(4-((2-(4-((((S)-10-((dimethylamino)methyl)-4-ethyl-4-hydroxy-3,14-dioxo-3,4,12,14-tetrahydro-1H-pyrano[3′,4′:6,7]indolizino[1,2-b]quinolin-9-yl)oxy)methyl)-piperidin-1-yl)-2-oxoethyl)(methyl)amino)phenyl)-13-methyl-3-oxo-2,3,6,7,8,11,12,13,14,15,16,17-dodeca-hydro-1H-cyclopenta[a]phenanthren-17-yl acetate] | < 0.01 µM | 0.01 to 0.1 µM | 101 to 1000 nM | > 1000 nM | < 0.01 µM | –
5 | CC[C@@]1(O)C(=O)OCc2c1cc1n(c2=O)Cc2cc3c(CN4CCN(C(=O)C5CCN(c6ccc(C(=O)N[C@H]7CC[C@H](Oc8ccc(C#N)c(Cl)c8C)CC7)nn6)CC5)CC4)c(OC(=O)N4C[C@H](C)N(C)C[C@H]4C)ccc3nc2-1 [Compound 30, (S)-10-((4-(1-(6-(((1r,4r)-4-(3-Chloro-4-cyano-2-methylphenoxy)cyclohexyl)carbamoyl)-pyridazin-3-yl)piperidine-4-carbonyl)piperazin-1-yl)methyl)-4-ethyl-4-hydroxy-3,14-dioxo-3,4,12,14-tetrahydro-1H-pyrano[3′,4′:6,7]indolizino[1,2-b]quinolin-9-yl (2R,5S)-2,4,5-trimethylpiperazine-1-carboxylate Formate] | < 0.01 µM | > 1 µM | – | > 1000 nM | > 1 µM | 10 to 100 nM
6 | CC[C@@]1(O)C(=O)OCc2c1cc1n(c2=O)Cc2cc3c(CN(C)C)c(OC(=O)N4CCN(CC5CCN(c6ccc(C(=O)N[C@H]7CC[C@H](Oc8ccc(C#N)c(Cl)c8C)CC7)nn6)CC5)CC4)ccc3nc2-1 [Compound 31, (S)-10-((Dimethylamino)methyl)-4-ethyl-4-hydroxy-3,14-dioxo-3,4,12,14-tetrahydro-1H-pyrano[3′,4′:6,7]indolizino[1,2-b]quinolin-9-yl 4-((1-(6-(((1r,4r)-4-(3-chloro-4-cyano-2-methylphenoxy)cyclohexyl)carbamoyl)pyridazin-3-yl)piperidin-4-yl)methyl)piperazine-1-carboxylate Formate] | < 0.01 µM | > 1 µM | – | 101 to 1000 nM | > 1 µM | 10 to 100 nM
7 | CC[C@@]1(O)C(=O)OCc2c1cc1n(c2=O)Cc2c-1nc1cc(F)c(C)c3c1c2[C@@H](NC(=O)COCNC(=O)CNC(=O)[C@H](Cc1ccccc1)NC(=O)CNC(=O)CN(C)c1ccc([C@H]2C[C@@]4(C)[C@@H](CC[C@]4(OC(C)=O)C(C)=O)[C@@H]4CCC5=CC(=O)CCC5=C42)cc1)CC3 [Compound 34, (8S,11R,13S,14S,17R)-17-Acetyl-11-(4-(((S)-10-benzyl-1-(((1S,9S)-9-ethyl-5-fluoro-9-hydroxy-4-methyl-10,13-dioxo-2,3,9,10,13,15-hexahydro-1H,12H-benzo[de]pyrano[3′,4′:6,7]indolizino[1,2-b]quinolin-1-yl)amino)-1,6,9, 12,15-pentaoxo-3-oxa-5,8,11,14-tetraazahexadecan-16-yl)(methyl)amino)phenyl)-13-methyl-3-oxo-2,3,6,7,8,11,12,13,14,15,16,17-dodecahydro-1H-cyclopenta[a]phenanthren-17-yl Acetate] (X1-[Sar]GFG[NHCH2OCH2CO]-Exatecan) | < 0.01 µM | 0.101 to 1 µM | – | 101 to 1000 nM | < 0.01 µM | –
